US20130029976A1, “PEST CONTROLLING COMPOSITION” (SUMITOMO CHEMICAL COMPANY, LIMITED, priority 2010, published 2013)

System: third instar larvae of Spodoptera litura
Assay: Test Example 1: cabbage leaf immersion test, insecticidal ratio
Assay type: in vivo
Conditions: cabbage leaf immersed 60 seconds, 2 days after, three replications
Protocol: A flowable formulation containing 10.0% by weight of pyridalyl (trade name: Pleo® flowable, manufactured by Sumitomo Chemical Co., Ltd.) was diluted with water containing 0.02% by volume of a spreading agent (trade name: Sindain®, manufactured by Sumitomo Chemical Co., Ltd.) so as to adjust the concentration of pyridalyl to 12.5 ppm.
A flowable formulation containing 10.0% by weight of indoxacarb (trade name: Tornado® flowable, manufactured by DuPont) was diluted with water containing 0.02% by volume of a spreading agent (trade name: Sindain®, manufactured by Sumitomo Chemical Co., Ltd.) so as to adjust the concentration of indoxacarb to 6.25 ppm.
The water dilution of pyridalyl and the water dilution of indoxacarb were mixed in the same amount to prepare a test chemical solution.
A cabbage was planted in a pot having a volume of 860 ml and grown to the forth leaf stage. Each leaf of the cabbage seedling was cut off. One leaf of the cabbage was immersed in the test chemical solution for 60 seconds. After air-drying, the leaf was placed in a cup having a volume of 500 ml in which filter paper had been spread on the bottom. In the cup, 10 third instar larvae of Spodoptera litura were released (the inside of the cup containing the treated cabbage was regarded as the treated area). […]
An insecticidal ratio was calculated by correcting the results using the following equation. […]

Row | Structure (SMILES) | Insecticidal ratio (%) (active ingredient 3.13 ppm) | Insecticidal ratio (%) (active ingredient 6.25 ppm)
1 | COC(=O)N(C(=O)N1CO[C@@]2(C(=O)OC)Cc3cc(Cl)ccc3C2=N1)c1ccc(OC(F)(F)F)cc1 [Indoxacarb, methyl(4aS)-7-chloro-2,5-dihydro-2-[[(methoxycarbonyl)[4-(trifluoromethoxy)phenyl]amino]carbonyl]indeno[1,2-e] [1,3,4]oxadiazine-4a(3H)-carboxylate] | 16.7 | 
2 | FC(F)(F)c1ccc(OCCCOc2c(Cl)cc(OCC=C(Cl)Cl)cc2Cl)nc1 [Pyridalyl, 2-[3-[2,6-dichloro-4-[(3,3-dichloro-2-propenyl)oxy]phenoxy]propoxy]-5-(trifluoromethyl)pyridine] |  | 10.0
